From patent publication US10912712B2, “Treatment of bleeding by non-invasive stimulation” (The Feinstein Institutes for Medical Research, priority 2004, dated 2021)
“Also recorded” adds a separate entry of the source.

Columns and labels:
[1] = system: Male Balb/c Mice; experiment: Bleed time after tail amputation in mice, GTS-21 (Example 10); type: in vivo; details: GTS-21 4 mg/kg IP vs PBS, 1 hour before, anesthetized, 2 mm of tail amputated
Procedure: Male Balb/c mice (around 25 g) were injected (intraperitoneally (IP)) with cholinergic agonist GTS-21 (4 mg/kg in 125 µL PBS) or PBS (vehicle control, 125 µL). 1 hour later, mice were anesthetized with ketamine/xylazine (100 mg/kg/10 mg/kg, intraperitoneally).

[2] = system: Male Balb/c Mice; experiment: Effect of alpha-7 antagonist MLA given before nicotine on bleed time (Example 13); type: in vivo
Procedure: Male Balb/c mice (around 25 g) were divided into three groups: A, B and C. Groups A and C were injected with the alpha-7 antagonist methyllycaconitine, (MLA; 4 mg/kg, IP, in 200 µL PBS), group B was injected with PBS (vehicle control, 125 µ1). 15 minutes later, Group A was injected with PBS (vehicle control, 125 µl) and groups B and C were injected with nicotine (0.3 mg/kg in 125 µL PBS). 30 minutes later, mice were anesthetized (ketamine [100 mg/kg, IP] and xylazine [10 mg/kg, IP]). After immersing tails in 37° C. saline for 5 minutes to normalize vasodilatory state, 2 mm of tail was amputated with a scalpel, and returned to the saline bath (modified from Nagashima et al., Journal of Clinical Investigation (109) 101-110, (2002); Snyder et al., Nature Medicine (5), 64-70, (1999).
Once bleeding stopped, animals were euthanized by CO2 asphyxiation. Data were recorded in seconds, and are presented as mean+/− SE. Student's t-test was used for statistical analysis.

COc1ccc(/C=C2\CCCN=C2c2cccnc2)c(OC)c1 [GTS-21]
total bleeding time [1]: significantly reduced the bleed time; also recorded: decrease in bleed time

CCN1C[C@]2(COC(=O)c3ccccc3N3C(=O)C[C@H](C)C3=O)CC[C@H](OC)[C@@]34[C@@H]5C[C@H]6[C@H](OC)[C@@H]5[C@](O)(C[C@@H]6OC)[C@@](O)([C@@H](OC)[C@H]23)[C@@H]14 [MLA, methyllycaconitine]
effect on nicotine induced reduction of bleed time ([2]; MLA 4 mg/kg IP 15 minutes before nicotine 0.3 mg/kg): inhibited nicotine induced reduction of bleed time

CN1CCCC1c1cccnc1 (stereo not drawn) [nicotine]
total bleeding time ([2]; nicotine 0.3 mg/kg after PBS pretreatment, 30 minutes later anesthetized, 2 mm of tail amputated): reduction in bleed time
